How the values were obtained:
[1] = tested on: phosphorylation of MAP kinase (ERK) in murine colon 26 (C26) carcinoma cells; assay: Cellular inhibition of ERK phosphorylation, C26ELSA (pERK ELISA format); format: cell-based; details: Mus musculus, 1 h, C26 cells treated with test compound for one hour at 37° C.
Protocol: MEK inhibitors were evaluated by determining their ability to inhibit phosphorylation of MAP kinase (ERK) in murine colon 26 (C26) carcinoma cells. Since ERK1 and ERK2 represent the only known substrates for MEK1and MEK2, the measurement of inhibition of ERK phosphorylation in cells provides direct read out of cellular MEK inhibition by the compounds of the invention. Detection of phosphorylation of ERK was carried out either by Western blot or ELISA format. Briefly, the assays involve treatment of exponentially growing C26 cells with varying concentrations of the test compound (or vehicle control) for one hour at 37° C. For Western blot assay, cells were rinsed free of compound/vehicle and lysed in a solution containing 70 mM NaCl, 50 mM glycerol phosphate, 10 mM HEPES, pH 7.4, 1% Triton X-100, 1 mM Na3VO4, 100 μM PMSF, 10 μM leupeptin and 10 μM pepstatin. Supernatants were then subjected to gel electrophoresis and hybridized to a primary antibody recognizing dually phosphorylated ERK1 and ERK2. To evaluate total MAPK levels, blots were subsequently ‘stripped’ and re-probed with a 1:1 mixture of polyclonal antibodies recognizing unphosphorylated ERK1 and ERK2. For pERK ELISA assay, pERK TiterZyme Enzyme immunometric Assay kits were acquired from Assay Designs, Inc (Ann Arbor, Mich.). Briefly, cells were harvested in lysis solution containing 50 mM β-glycerophosphate, 10 mM HEPES, ph7.4, 70 mM NaCl, 2 mM EDTA and 1% SDS and protein lysates were diluted 1:15 with supplied Assay buffer prior to the execution of the assay. The subsequent steps were carried out essentially as recommended by the manufacturer.
The inhibition data generated by the above protocols is disclosed in Table I. If several concentrations of inhibitor were tested, IC50 values (the concentration which gives 50% inhibition) were determined graphically from the dose response curve for % inhibition. Otherwise, percent inhibitions at measured concentrations are reported.

| SMILES | melting point | IC50 [1] |
| --- | --- | --- |
| Cn1cc(C(N)=O)c(Nc2ccc3ccccc3c2)cc1=O [Example 43, 1-Methyl-4-(2-naphthylamino)-6-oxo-1,6-dihydro-3-pyridinecarboxamide] | 254 to 257 °C |  |
| CCn1cc(C(N)=O)c(Nc2ccc(I)cc2F)cc1=O [Example 27, 1-Ethyl-4-(2-fluoro-4-iodoanilino)-6-oxo-1,6-dihydro-3-pyridinecarboxamide] | 260 to 262 °C |  |
| Cn1cc(C(N)=O)c(Nc2ccc(I)cc2F)cc1=O [Example 10, 4-(2-Fluoro-4-iodoanilino)-1-methyl-6-oxo-1,6-dihydro-3-pyridinecarboxamide] |  | 4.4 nM |
| CSc1ccc(Nc2cc(=O)n(C)cc2-c2nnc(NCC(O)CO)o2)c(F)c1 (stereo not drawn) [Example 92, 5-[5-(2,3-dihydroxy-propylamino)-[1,3,4]oxadiazol-2-yl]-4-(2-fluoro-4-methylsulfanyl-phenylamino)-1-methyl-1H-pyridine-2-one] |  | 1240 nM |
| N#CCCCn1cc(C(N)=O)c(Nc2ccc(I)cc2F)cc1=O [Example 26, 1-(3-Cyanopropyl)-4-(2-fluoro-4-iodoanilino)-6-oxo-1,6-dihydro-3-pyridinecarboxamide] | 146 to 150 °C |  |
| CN(C)C(=O)c1cn(C)c(=O)cc1Nc1ccc(I)cc1F [Example 52, 4-(2-Fluoro-4-iodoanilino)-N,N,1-trimethyl-6-oxo-1,6-dihydro-3-pyridinecarboxamide] | 106 to 111 °C |  |
| Cn1cc(C(N)=O)c(Nc2ccc(Cl)c(Cl)c2)cc1=O [Example 56, 4-(3,4-Dichloro-phenylamino)-1-methyl-6-oxo-1,6-dihydro-pyridine-3-carboxylic acid amide] | > 250 °C |  |
| Cc1ccc(Nc2cc(=O)n(C)cc2C(=O)O)cc1C [Example 63, 4-(3,4-Dimethyl-phenylamino)-1-methyl-6-oxo-1,6-dihydro-pyridine-3-carboxylic acid] | 238 to 242 °C |  |
| Cn1cc(C(=O)O)c(Nc2ccc(I)cc2F)cc1=O [Example 55, 4-(2-fluoro-4-iodoanilino)-1-methyl-6-oxo-1,6-dihydro-3-pyridinecarboxylic acid] | 254 to 257 °C |  |
| Cn1cc(C(N)=O)c(Nc2ccc(C(F)(F)C(F)(F)C(F)(F)C(F)(F)F)cc2F)cc1=O | 112 to 118 °C |  |
| CC(CO)NC(=O)c1cn(C)c(=O)cc1Nc1ccc(I)cc1F (stereo not drawn) [Example 49, 4-(2-Fluoro-4-iodoanilino)-N-(2-hydroxy-1-methylethyl)-1-methyl-6-oxo-1,6-dihydro-3-pyridinecarboxamide] | 198 to 202 °C |  |
| Cn1cc(C(=O)O)c(Nc2ccc3c(c2)CCC3)cc1=O [Example 64, 4-(Indan-5-ylamino)-1-methyl-6-oxo-1,6-dihydro-pyridine-3-carboxylic acid] | 218 to 220 °C |  |
| NC(=O)c1cn(CC(=O)O)c(=O)cc1Nc1ccc(I)cc1F [Example 25] | 296 to 300 °C |  |
| Cn1cc(C(N)=O)c(Nc2ccc(C#N)cc2F)cc1=O [Example 54, 4-(4-Cyano-2-fluoroanilino)-1-methyl-6-oxo-1,6-dihydro-3-pyridinecarboxamide] | 261 to 266 °C |  |
| COCCOCCn1cc(C(N)=O)c(Nc2ccc(I)cc2F)cc1=O [Example 29, 4-(2-Fluoro-4-iodoanilino)-1-[2-(2-methoxyethoxy)ethyl]-6-oxo-1,6-dihydro-3-pyridinecarboxamide] | 114 to 116 °C |  |
| Cn1cc(C(=O)O)c(Nc2ccc(Cl)c(Cl)c2Cl)cc1=O [Example 65, 1-Methyl-6-oxo-4-(2,3,4-trichloro-phenylamino)-1,6-dihydro-pyridine-3-carboxylic acid] | 258 to 261 °C |  |
| CCCn1cc(C(N)=O)c(Nc2ccc(I)cc2F)cc1=O [Example 28, 4-(2-Fluoro-4-iodoanilino)-6-oxo-1-propyl-1,6-dihydro-3-pyridinecarboxamide] | 218 to 220 °C |  |

Second part, the molecule after the results:

| melting point | IC50 [1] | SMILES |
| --- | --- | --- |
| 231 to 233 °C |  | CCc1ccc(Nc2cc(=O)[nH]cc2C(=O)NCCCO)c(F)c1 [Example 16, 4-(4-Ethyl-2-fluoroanilino)-N-(3-hydroxypropyl)-6-oxo-1,6-dihydro-3-pyridinecarboxamide] |
| 93 to 98 °C |  | Cn1cc(C(=O)NC(CO)CO)c(Nc2ccc(I)cc2F)cc1=O [Example 46, 4-(2-Fluoro-4-iodoanilino)-N-[2-hydroxy-1-(hydroxymethyl)ethyl]-1-methyl-6-oxo-1,6-dihydro-3-pyridinecarboxamide] |
| 249 to 252 °C |  | C#Cc1ccc(Nc2cc(=O)[nH]cc2C(=O)NCCCO)c(F)c1 [Example 15, 4-(4-Ethynyl-2-fluoroanilino)-N-(3-hydroxypropyl)-6-oxo-1,6-dihydro-3-pyridinecarboxamide] |
| 167 to 170 °C |  | Cn1cc(C(=O)NCCCO)c(Nc2ccc(Br)cc2F)cc1=O [Example 39, 4-(4-Bromo-2-fluoroanilino)-N-(3-hydroxypropyl)-1-methyl-6-oxo-1,6-dihydro-3-pyridinecarboxamide] |
| 161 to 166 °C |  | CC(O)CNC(=O)c1cn(C)c(=O)cc1Nc1ccc(I)cc1F (stereo not drawn) [Example 50, 4-(2-Fluoro-4-iodoanilino)-N-(2-hydroxypropyl)-1-methyl-6-oxo-1,6-dihydro-3-pyridinecarboxamide] |
| 174 to 176 °C |  | O=C(NCCCO)c1cn(CCO)c(=O)cc1Nc1ccc(I)cc1F [Example 23, 4-(2-Fluoro-4-iodoanilino)-1-(2-hydroxyethyl)-N-(3-hydroxypropyl)-6-oxo-1,6-dihydro-3-pyridinecarboxamide] |
| 129 to 132 °C |  | Cn1cc(C(=O)NCCCO)c(Nc2ccc(F)cc2F)cc1=O [Example 34, 4-(2,4-Difluoroanilino)-N-(3-hydroxypropyl)-1-methyl-6-oxo-1,6-dihydro-3-pyridinecarboxamide] |
| 110 to 115 °C |  | Cc1ccc(Nc2cc(=O)n(C)cc2C(=O)NOCCO)c(F)c1 [Example 35, 4-(2-Fluoro-4-methylanilino)-N-(2-hydroxyethoxy)-1-methyl-6-oxo-1,6-dihydro-3-pyridinecarboxamide] |
| 205 to 208 °C |  | Cn1cc(C(=O)NCCO)c(Nc2ccc(I)cc2F)cc1=O [Example 4, 4-(2-Fluoro-4-iodoanilino)-N-(2-hydroxyethyl)-1-methyl-6-oxo-1,6-dihydro-3-pyridinecarboxamide] |
| 268 to 272 °C |  | CCc1ccc(Nc2cc(=O)n(C)cc2C(N)=O)c(F)c1 [Example 18, 4-(4-Ethyl-2-fluoroanilino)-1-methyl-6-oxo-1,6-dihydro-3-pyridinecarboxamide] |
| 201 to 206 °C |  | Cn1cc(C(=O)NCCCN)c(Nc2ccc(I)cc2F)cc1=O [Example 53, N-(3-Aminopropyl)-4-(2-fluoro-4-iodoanilino)-1-methyl-6-oxo-1,6-dihydro-3-pyridinecarboxamide] |
| 212 to 215 °C |  | NC(=O)c1cn(CCO)c(=O)cc1Nc1ccc(I)cc1F [Example 22, 4-(2-Fluoro-4-iodoanilino)-1-(2-hydroxyethyl)-6-oxo-1,6-dihydro-3-pyridinecarboxamide] |
| 142 to 145 °C |  | Cc1ccc(Nc2cc(=O)n(C)cc2C(=O)NCCCO)c(F)c1 [Example 36, 4-(2-Fluoro-4-methylanilino)-N-(3-hydroxypropyl)-1-methyl-6-oxo-1,6-dihydro-3-pyridinecarboxamide] |
| 265 to 273 °C |  | C#Cc1ccc(Nc2cc(=O)[nH]cc2C(=O)NCCO)c(F)c1 [Example 12, 4-(4-Ethynyl-2-fluoroanilino)-N-(2-hydroxyethyl)-6-oxo-1,6-dihydro-3-pyridinecarboxamide] |
| 220 to 223 °C |  | NC(=O)c1cn(CCCO)c(=O)cc1Nc1ccc(I)cc1F [Example 32, 4-(2-Fluoro-4-iodoanilino)-1-(3-hydroxypropyl)-6-oxo-1,6-dihydro-3-pyridinecarboxamide] |
| 256 to 258 °C |  | CCc1ccc(Nc2cc(=O)[nH]cc2C(=O)NCCO)c(F)c1 [Example 13] |
| 232 to 238 °C |  | Cn1cc(C(=O)NOCCO)c(Nc2ccc(F)cc2F)cc1=O [Example 33, 4-(2,4-Difluoroanilino)-N-(2-hydroxyethoxy)-1-methyl-6-oxo-1,6-dihydro-3-pyridinecarboxamide] |
| 96 to 101 °C |  | Cn1cc(C(=O)NCC(O)CO)c(Nc2ccc(I)cc2F)cc1=O (stereo not drawn) [Example 45, N-(2,3-Dihydroxypropyl)-4-(2-fluoro-4-iodoanilino)-1-methyl-6-oxo-1,6-dihydro-3-pyridinecarboxamide] |
| 124 to 128 °C |  | Cn1cc(C(=O)NOCCO)c(Nc2ccc(Br)cc2F)cc1=O [Example 38, 4-(4-Bromo-2-fluoroanilino)-N-(2-hydroxyethoxy)-1-methyl-6-oxo-1,6-dihydro-3-pyridinecarboxamide] |

From patent US7273877B2, “5-substituted-4-[(substituted phenyl) amino]-2-pyridone derivatives” (Warner-Lambert Company, LLC, priority 2003, dated 2007)
